The values below come from patent US20250346579A1, “PYRIDAZINONE COMPOUND AND PREPARATION METHOD THEREFOR, PHARMACEUTICAL COMPOSITION THEREOF, AND APPLICATION THEREOF” (CHINA PHARMACEUTICAL UNIVERSITY, priority 2021, published 2025).

Like-named read-outs stand apart in the source and are kept apart here.

The target of the experiment is T1, PARP7 (Homo sapiens, UniProt Q7Z3E1).
T1 construct: purchased BPS Bioscience
T1 sequence (Q7Z3E1 1-657): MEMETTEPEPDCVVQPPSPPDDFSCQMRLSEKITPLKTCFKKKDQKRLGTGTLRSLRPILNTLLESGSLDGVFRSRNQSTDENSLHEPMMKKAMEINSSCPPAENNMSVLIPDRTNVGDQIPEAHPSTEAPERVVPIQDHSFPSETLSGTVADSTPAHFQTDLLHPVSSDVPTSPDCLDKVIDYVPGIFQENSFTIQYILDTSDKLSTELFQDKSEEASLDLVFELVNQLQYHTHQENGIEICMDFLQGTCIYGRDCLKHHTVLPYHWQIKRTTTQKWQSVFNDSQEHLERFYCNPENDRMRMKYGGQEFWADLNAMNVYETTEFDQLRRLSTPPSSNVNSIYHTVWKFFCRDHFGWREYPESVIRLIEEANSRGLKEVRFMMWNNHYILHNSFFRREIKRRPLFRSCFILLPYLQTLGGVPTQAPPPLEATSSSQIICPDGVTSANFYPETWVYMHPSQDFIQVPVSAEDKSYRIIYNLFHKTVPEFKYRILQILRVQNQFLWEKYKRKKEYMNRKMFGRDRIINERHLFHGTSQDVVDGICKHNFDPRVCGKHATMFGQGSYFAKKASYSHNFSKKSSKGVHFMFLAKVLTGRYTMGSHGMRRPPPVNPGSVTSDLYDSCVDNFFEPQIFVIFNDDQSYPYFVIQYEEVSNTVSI
The experiment is described as follows: Inhibitory activity of compounds on PARP7 enzyme (PARP7 Chemiluminescent Assay Kit). The format is biochemical. As for the experimental part:
Experimental materials: PARP7 Chemiluminescent Assay Kit, BPS Bioscience; DMSO, China National Pharmaceutical Group, Nivo, PerkinElmer.
(1) Preparation of Solutions and Buffers:
Preparation of 10×PBS: 720 mg of KH2PO4, 45 g of NaCl and 5.311 g of Na2HPO4·12H2O were weighed respectively and dissolved in 500 mL of deionized water, a system pH value was adjusted to 7.4, sterilization was performed at 121° C. for 30 min, and the system after cooling was placed at 4° C. for later use.
Preparation of 1×PBS: 10×PBS was diluted 10 times with deionized water, that is, 9 parts of deionized water was added to 1 part of 10×PBS for dilution.
Preparation of wash buffer: 1×PBS contained 0.05% Tween-20.
Preparation of 1×PARP buffer (prepared freshly before use): 10×PARP buffer was diluted 10 times with deionized water and placed on ice for later use.
(2) Preparation of Compound Working Solution Concentration:
According to test requirements, a compound to be tested is diluted with 100% DMSO to a desired concentration, and then diluted 10 times with 1×PARP buffer to prepare a 10× compound working solution.
a. 5× histone mixture was thawed on ice one day prior to the experiment;
b. preparation of 1× histone mixture: 1× histone mixture was prepared through the 5× histone mixture by using 1×PBS; and 25 μL of 1× histone mixture was taken from each well and transferred into a test well plate and incubated overnight at 4° C.;
c. 100 μL of Blocking buffer was taken from each well and added to the test well plate and incubated for 90 min at 25° C.;
d. after the incubation was completed, the liquid in the test well plate was spin-dried, and the test well plate was washed repeatedly for 3 times;
e. 2.5 μL of the compound working solution was taken from each well and added to the test well plate according to an experimental layout diagram; and 1×PARP buffer with a corresponding volume of 10% DMSO was added to positive control wells (Positive Control), and 1×PARP buffer of a corresponding volume was added to blank control wells (Blank);
f. after the enzyme was completely dissolved, an enzyme stock solution was diluted with 1×PARP buffer to 6 ng/μL;
g. 10 μL of enzyme solution was taken from each well and added to the test well plate, the blank control wells were added with the corresponding volume of 1×PARP buffer, and in which case, the enzyme amount was 60 ng per well. Note: this step needs to be performed on ice;
h. 12.5 μL of master mixture was added to each well of the test well plate (12.5 μL master mixture included 1.25 μL of 10×PARP buffer, 1.25 μL of Opti-PARP 10× Assay mixture and 10 μL of water); the test well plate was sealed and incubated at 25° C. for 60 min;
i. after the incubation was completed, the liquid in the test well plate was spin-dried, and the test well plate was washed repeatedly for 3 times;
j. Streptavidin-HRP in a kit was diluted 50 times with a Blocking buffer, 25 μL was taken from each well and added to the test well plate, and incubated at 25° C. for 30 min;
k. after the incubation was completed, the liquid in the test well plate was spin-dried, and the test well plate was washed repeatedly for 3 times;
l. ELISA ECL Substrate A and ELISA ECL Substrate B in the kit was mixed to obtain a mixed solution according to a ratio of 1:1, 50 μL of the mixed solution was added to each well of the test well plate, Nivo was used to perform Luminescence detection immediately, and a luminous value (RLU) was read; and
m. calculation of an enzyme rate: Enzyme Activity=(RLU(Sample)−RLU(Blank))/(RLU(Pos.Ctrl)−RLU(Blank))×100%; and enzyme inhibition rate=1−% Enzyme Activity, and specific results were shown in Table 1 below.

[1] abbreviates: chemiluminescence, symbols defined as IC50 classes, read-out: 100 nM Inhibition Rate.
The mark [2] stands for this setting: summary of Table 1, read-out: enzyme inhibition IC50 values.

As for `C[C@@H](CN1CC(C(=O)N2CCN(c3ncc(-c4ccc(C(F)(F)F)cc4)cn3)CC2)C1)Nc1cn[nH]c(=O)c1C(F)(F)F` [I-A-2, (S)-4-(trifluoromethyl)-5-((1-(3-(4-(5-(4-(trifluoromethyl)phenyl)pyrimidin-2-yl)piperazine-1-carbonyl)azetidin-1-yl)propan-2-yl)amino)pyridazin-3(2H)-one], the IC50 under setting [1] lay within 100 to 500 nM.

Turning to `C[C@@H](CN1CC(C(=O)N2CCN(c3ncc(C#N)cn3)CC2)C1)Nc1cn[nH]c(=O)c1C(F)(F)F` [I-A-3, (S)-2-(4-(1-(2-((6-oxo-5-(trifluoromethyl)-1,6-dihydropyridazin-4-yl)amino)propyl)azetidine-3-carbonyl)piperazin-1-yl)pyrimidine-5-carbonitrile], under setting [1], the IC50 is below 100 nM.

Take `C[C@@H](CN1CC(C(=O)N2CCN(c3ncc(S(C)(=O)=O)cn3)CC2)C1)Nc1cn[nH]c(=O)c1C(F)(F)F` [I-A-4, (S)-5-((1-(3-(4-(5-(methylsulfonyl)pyrimidin-2-yl)piperazine-1-carbonyl)azetidin-1-yl)propan-2-yl)amino)-4-(trifluoromethyl)pyridazin-3(2H)-one]: the IC50 under setting [1] was below 100 nM.

`C[C@@H](CN1CC(C(=O)N2CCN(c3ncc(Cl)cn3)CC2)C1)Nc1cn[nH]c(=O)c1C(F)(F)F` [I-A-5, (S)-5-((1-(3-(4-(5-chloropyrimidin-2-yl)piperazine-1-carbonyl)azetidin-1-yl)propan-2-yl)amino)-4-(trifluoromethyl)pyridazin-3(2H)-one]: the IC50 under setting [1] was below 100 nM.

For the compound `Cc1cnc(N2CCN(C(=O)C3CN(C[C@H](C)Nc4cn[nH]c(=O)c4C(F)(F)F)C3)CC2)nc1` [I-A-6, (S)-5-((1-(3-(4-(5-methylpyrimidin-2-yl)piperazine-1-carbonyl)azetidin-1-yl)propan-2-yl)amino)-4-(trifluoromethyl)pyridazin-3(2H)-one], the IC50 under setting [1] was below 100 nM.

In the case of `C[C@@H](CN1CC(C(=O)N2CCN(c3ncc(Br)cn3)CC2)C1)Nc1cn[nH]c(=O)c1C(F)(F)F` [I-A-7, (S)-5-((1-(3-(4-(5-bromopyrimidin-2-yl)piperazine-1-carbonyl)azetidin-1-yl)propan-2-yl)amino)-4-(trifluoromethyl)pyridazin-3(2H)-one], the IC50 under setting [1] was below 100 nM.

For the compound `C[C@@H](CN1CC(C(=O)N2CCN(c3ncc(F)cn3)CC2)C1)Nc1cn[nH]c(=O)c1C(F)(F)F` [I-A-8, (S)-5-((1-(3-(4-(5-fluoropyrimidin-2-yl)piperazine-1-carbonyl)azetidin-1-yl)propan-2-yl)amino)-4-(trifluoromethyl)pyridazin-3(2H)-one], the IC50 under setting [1] lay in the range of 100 to 500 nM.

Consider `COc1cnc(N2CCN(C(=O)C3CN(C[C@H](C)Nc4cn[nH]c(=O)c4C(F)(F)F)C3)CC2)nc1` [I-A-9, (S)-5-((1-(3-(4-(5-methoxypyrimidin-2-yl)piperazine-1-carbonyl)azetidin-1-yl)propan-2-yl)amino)-4-(trifluoromethyl)pyridazin-3(2H)-one], for which the IC50 under setting [1] is below 100 nM.

For the compound `C[C@@H](CN1CC(C(=O)N2CCN(c3ccc(C(F)(F)F)cn3)CC2)C1)Nc1cn[nH]c(=O)c1C(F)(F)F` [I-A-10, (S)-4-(trifluoromethyl)-5-((1-(3-(4-(5-(trifluoromethyl)pyridin-2-yl)piperazine-1-carbonyl)azetidin-1-yl)propan-2-yl)amino)pyridazin-3(2H)-one], the IC50 under setting [1] was below 100 nM.

For the compound `C[C@@H](CN1CC(C(=O)N2CCN(c3ccc(C(F)(F)F)cc3)CC2)C1)Nc1cn[nH]c(=O)c1C(F)(F)F` [I-A-11], the IC50 under setting [1] was in the range of 100 to 500 nM.

As for `C[C@@H](CN1CC(C(=O)N2CCN(c3cccc4c3oc3ccccc34)CC2)C1)Nc1cn[nH]c(=O)c1C(F)(F)F` [I-A-12], the IC50 under setting [1] was 100 to 500 nM.

For `C[C@@H](CN1CC(C(=O)N2CCN(c3nccc(C(F)(F)F)n3)CC2)C1)Nc1cn[nH]c(=O)c1C(F)(F)F` [I-A-13, (S)-4-(trifluoromethyl)-5-((1-(3-(4-(4-(trifluoromethyl)pyrimidin-2-yl)piperazine-1-carbonyl)azetidin-1-yl)propan-2-yl)amino)pyridazin-3(2H)-one], the IC50 was below 100 nM under setting [1] and below 100 nM under setting [2].

Turning to `C[C@@H](CN1CC(C(=O)N2CCN(c3ncccn3)CC2)C1)Nc1cn[nH]c(=O)c1C(F)(F)F` [I-A-14, (S)-5-((1-(3-(4-(pyrimidin-2-yl)piperazine-1-carbonyl)azetidin-1-yl)propan-2-yl)amino)-4-(trifluoromethyl)pyridazin-3(2H)-one], the IC50 under setting [1] was 100 to 500 nM.

Regarding `C[C@@H](CN1CC(C(=O)NC2CN(c3ncc(C(F)(F)F)cn3)C2)C1)Nc1cn[nH]c(=O)c1C(F)(F)F` [I-A-15, (S)-1-(2-((6-oxo-5-(trifluoromethyl)-1,6-dihydropyridazin-4-yl)amino)propyl)-N-(1-(5-(trifluoromethyl)pyrimidin-2-yl)azetidin-3-yl)azetidine-3-carboxamide], the IC50 under setting [1] is below 100 nM.

With `C[C@@H](CN1CC(C(=O)N(C)C2CN(c3ncc(C(F)(F)F)cn3)C2)C1)Nc1cn[nH]c(=O)c1C(F)(F)F` [I-A-16, (S)-N-methyl-1-(2-((6-oxo-5-(trifluoromethyl)-1,6-dihydropyridazin-4-yl)amino)propyl)-N-(1-(5-(trifluoromethyl)pyrimidin-2-yl)azetidin-3-yl)azetidine-3-carboxamide], the IC50 under setting [1] was below 100 nM.

As for `CC1CN(c2ncc(C(F)(F)F)cn2)CC(C)N1C(=O)C1CN(C[C@H](C)Nc2cn[nH]c(=O)c2C(F)(F)F)C1` (stereo partly drawn) [I-A-17, 5-(((2S)-1-(3-(2,6-dimethyl-4-(5-(trifluoromethyl)pyrimidin-2-yl)piperazine-1-carbonyl)azetidin-1-yl)propan-2-yl)amino)-4-(trifluoromethyl)pyridazin-3(2H)-one], under setting [1], the IC50 was below 100 nM.

For `C[C@@H](CN1CC[C@H](C(=O)N2CCN(c3ncc(C(F)(F)F)cn3)CC2)C1)Nc1cn[nH]c(=O)c1C(F)(F)F` [I-A-18, 4-(trifluoromethyl)-5-(((2S)-1-(3-(4-(5-(trifluoromethyl)pyrimidin-2-yl)piperazine-1-carbonyl)pyrrolidin-1-yl)propan-2-yl)amino)pyridazin-3(2H)-one], the IC50 under setting [1] was 100 to 500 nM.

Take `C[C@@H](CN1CCC(C(=O)N2CCN(c3ncc(C(F)(F)F)cn3)CC2)CC1)Nc1cn[nH]c(=O)c1C(F)(F)F` [I-A-19, (S)-4-(trifluoromethyl)-5-((1-(4-(4-(5-(trifluoromethyl)pyrimidin-2-yl)piperazine-1-carbonyl)piperidin-1-yl)propan-2-yl)amino)pyridazin-3(2H)-one]: the IC50 under setting [1] was in the range of 100 to 500 nM.

`O=C(C1CN(CCNc2cn[nH]c(=O)c2C(F)(F)F)C1)N1CCN(c2ncc(C(F)(F)F)cn2)CC1` [I-A-20, 4-(trifluoromethyl)-5-((2-(3-(4-(5-(trifluoromethyl)pyrimidin-2-yl)piperazine-1-carbonyl)azetidin-1-yl)ethyl)amino)pyridazin-3(2H)-one]: the IC50 reads like this: under setting [1], below 100 nM; under setting [2], below 100 nM.
